Measured values taken from patent US5767141A, “Substituted propane derivatives, a process for their preparation and the use of the compounds for treating diseases” (Hoechst Aktiengesellschaft, priority 1994, dated 1998).

Tests used:
[1] = test system: glucose-6-phosphatase; settings: qualitative, literature; cited from earlier work
[2] = target: T1, glucose-6-phosphatase system (Rattus norvegicus, UniProt F7EWB7); test: inhibition of the glucose-6-phosphatase system, enzyme assay in liver microsomes (phosphate liberated from glucose 6-phosphate); format: biochemical, male Wistar rats
T1 construct: To prepare the microsome fraction containing the glucose-6-phosphatase, fresh liver organs from male Wistar rats were used; from tissue; host or cells: liver microsome fraction of male Wistar rats
T1 sequence (F7EWB7 1-429): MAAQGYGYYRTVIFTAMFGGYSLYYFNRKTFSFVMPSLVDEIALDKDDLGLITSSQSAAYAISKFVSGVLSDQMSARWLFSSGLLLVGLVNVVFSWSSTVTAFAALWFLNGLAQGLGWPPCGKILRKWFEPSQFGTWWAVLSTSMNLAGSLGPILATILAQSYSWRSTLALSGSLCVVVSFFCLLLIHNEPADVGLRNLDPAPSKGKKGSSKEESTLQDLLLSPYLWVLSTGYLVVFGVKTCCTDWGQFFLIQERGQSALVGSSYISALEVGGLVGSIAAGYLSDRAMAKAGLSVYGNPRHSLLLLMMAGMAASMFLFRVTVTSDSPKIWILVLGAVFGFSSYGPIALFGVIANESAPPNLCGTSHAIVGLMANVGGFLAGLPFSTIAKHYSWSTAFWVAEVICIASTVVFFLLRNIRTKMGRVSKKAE
Procedure: The effect of the compounds according to the invention on the glucose-6-phosphatase system was investigated in an enzyme assay in liver microsomes.
To prepare the microsome fraction containing the glucose-6-phosphatase, fresh liver organs from male Wistar rats were used and were processed as described in the literature [Canfield, W. K. and Arion, W. J., J. Biol. Chem. 263, 7458-7460, (1988)]. This microsome fraction can be stored at -70° C. for at least 2 months without significant loss of activity.
The glucose-6-phosphatase activity was detected as indicated in the literature (Arion, W. J. in Methods Enzymol. 174, Academic Press 1989, pages 58-67) by determination of the phosphate liberated from glucose 6-phosphate. 0.1 ml of assay mixture contained glucose 6-phosphate (1 mmol/l), the test substance, 0.1 mg of microsome fraction and 100 mmol/l HEPES buffer (4-(2-hydroxyethyl)piperazine-1-ethanesulfonic acid), pH 7.0. The reaction was started by adding the enzyme. After 20 minutes at room temperature, the reaction was stopped by adding 0.2 ml of phosphate reagent. The sample was incubated at 37° C. for 30 min, and the absorption (A) of the blue color was subsequently measured at 570 nm. The inhibitory activity of the test substance emerged from comparison with a control reaction which contained no test substance according to the formula [formula] […]

## CC(=O)Oc1ccccc1C=Cc1ccccc1N=C=S [2-iso-thiocyanato-2'-acetoxystilbene]
[1]
  inhibition of glucose-6-phosphatase (in words): non-specific inhibitors of glucose-6-phosphatase

## O=C(O)c1cc(SSc2ccc([N+](=O)[O-])c(C(=O)O)c2)ccc1[N+](=O)[O-] [5,5'-dithiobis-2-nitrobenzoic acid]
[1]
  inhibition of glucose-6-phosphatase (in words): non-specific inhibitors of glucose-6-phosphatase

## CC(C)(COC(=O)/C=C(/c1ccccc1)n1cnc2ccccc21)C(OCCCc1ccc(Cl)cc1)C(=O)O (racemic) [Example 1, (±)-4-(3Z-(1-Benzimidazolyl)-3-phenylpropenoyloxy)-2-(4-chlorophenylpropyloxy)-3,3-dimethylbutanoic acid]
[2]; qualitative statement
  inhibition of the glucose-6-phosphatase system (in words): inhibitors of the glucose-6-phosphatase system
[2]; rat liver microsome fraction, glucose 6-phosphate 1 mmol/l, pH 7.0, 20 minutes at room temperature, read-out: IC50 (concentration for 50% inhibition of enzyme activity)
  IC50: 4 µM

## O=C(CCc1ccc(O)cc1)c1c(O)cc(O)cc1O[C@@H]1O[C@H](CO)[C@@H](O)[C@H](O)[C@H]1O [phlorrhizin]
[1]
  inhibition of glucose-6-phosphatase (in words): non-specific inhibitors of glucose-6-phosphatase

## S=C=Nc1ccccc1C=Cc1ccccc1N=C=S [2,2'-diisothiocyanatostilbene]
[1]
  inhibition of glucose-6-phosphatase (in words): non-specific inhibitors of glucose-6-phosphatase
